What follows are cell lines tested with CC1=CC(=CC=C1)NC2=NC(=CS2)C3=CC=NC=C3 + O=C(c1cc(Cc2n[nH]c(=O)c3ccccc23)ccc1F)N1CCN(C(=O)C2CC2)CC1 [Olaparib] (partner 8 µM) (assay: relative viability (nuclei count vs DMSO), 5 days (fraction); higher = more cells survive). Details: first compound 0.08 µM.
In short: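 Lung cancer cell lines, seeded in 1536-well plates, were treated the following day by pin tool with a single drug or with five library-drug doses (not always all listed) in √10 steps on top of a fixed anchor-drug dose. Cells were fixed and nuclei stained in one step after 5 days, and nuclei were counted. Relative viability is the nuclei count for treated wells divided by that for vehicle wells, reported as medians of duplicate plates.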

Cell Line	relative viability
NCI-H1395	0.439
201T	0.853
NCI-H1975	0.747
HCC-827	0.639
NCI-H2347	0.47
NCI-H1355	0.579
NCI-H650	0.338
NCI-H1666	0.677
EPLC-272H	0.79
NCI-H23	0.226
NCI-H1915	0.271
NCI-H1437	0.628
NCI-H322M	0.687
NCI-H1792	0.312
NCI-H2085	0.844
HCC-15	0.713
NCI-H1944	0.377
PC-3 [JPC-3]	0.926
EKVX	0.617
LC-2-ad	0.661
NCI-H2170	0.589
NCI-H1993	0.945
ABC-1	0.48
RERF-LC-KJ	0.509

Same assay, conditions: first compound 0.253 µM

Cell Line	relative viability
201T	0.845
NCI-H1975	0.442
HCC-827	0.635
NCI-H2347	0.536
NCI-H1355	0.531
NCI-H650	0.348
NCI-H1666	0.771
EPLC-272H	0.673
NCI-H23	0.228
NCI-H1915	0.263
NCI-H1437	0.585
NCI-H322M	0.76
NCI-H1792	0.307
NCI-H2085	0.784
HCC-15	0.696
NCI-H1944	0.379
EKVX	0.72
LC-2-ad	0.693
NCI-H2170	0.631
NCI-H1993	1.01
RERF-LC-KJ	0.258

Same assay, conditions: first compound 0.8 µM

Cell Line	relative viability
NCI-H1395	0.478
201T	0.788
NCI-H1975	0.458
HCC-827	0.661
NCI-H2347	0.538
NCI-H1355	0.444
NCI-H650	0.392
NCI-H1666	0.737
EPLC-272H	0.551
NCI-H23	0.22
NCI-H1915	0.25
NCI-H1437	0.525
NCI-H322M	0.725
NCI-H1792	0.248
NCI-H2085	0.757
HCC-15	0.717
NCI-H1944	0.377
PC-3 [JPC-3]	1.01
LC-2-ad	0.657
NCI-H2170	0.473
NCI-H1993	0.923
ABC-1	0.735
RERF-LC-KJ	0.184

Same assay, conditions: first compound 2.53 µM

Cell Line	relative viability
NCI-H1395	0.46
201T	0.826
NCI-H1975	0.395
HCC-827	0.717
NCI-H2347	0.568
NCI-H1355	0.385
NCI-H650	0.368
NCI-H1666	0.766
EPLC-272H	0.687
NCI-H23	0.221
NCI-H1915	0.243
NCI-H1437	0.478
NCI-H322M	0.613
NCI-H1792	0.255
NCI-H2085	0.769
HCC-15	0.677
NCI-H1944	0.327
PC-3 [JPC-3]	1.07
EKVX	0.525
LC-2-ad	0.627
NCI-H2170	0.531
NCI-H1993	1.11
ABC-1	0.525
RERF-LC-KJ	0.181

Same assay, conditions: first compound 8 µM

Cell Line	relative viability
NCI-H1395	0.43
201T	0.757
NCI-H1975	0.235
HCC-827	0.654
NCI-H2347	0.48
NCI-H1355	0.407
NCI-H650	0.367
NCI-H1666	0.824
EPLC-272H	0.619
NCI-H23	0.235
NCI-H1915	0.23
NCI-H1437	0.371
NCI-H322M	0.575
NCI-H1792	0.32
NCI-H2085	0.587
HCC-15	0.694
NCI-H1944	0.377
PC-3 [JPC-3]	0.924
EKVX	0.371
LC-2-ad	0.616
NCI-H2170	0.425
NCI-H1993	0.898
ABC-1	0.574

— the supplement of paper PMC10307832
